For 14 molecules, IC50 and inhibition in vivo results are on record in patent publication US20190169181A1, “FUMAGILLOL COMPOUNDS AND METHODS OF MAKING AND USING SAME” (Zafgen, Inc., priority 2016, published 2019).

Experiment [1] concerns the target T1, recombinant human MetAP2 (Homo sapiens, UniProt P50579).
T1 construct: Flag; made in house
The experiment can be described thus: Recombinant human MetAP2 enzyme inhibition assay (MAS peptide / amino acid oxidase / Amplex Ultrared readout). It is filed as biochemical. The following applies: Flag tagged human recombinant MetAP2, 25 minutes at 25° C. As to the method: Compounds are tested for their capacity to inhibit recombinant human MetAP2 activity using the following assay.
Flag tagged Human recombinant MetAP2 expressed and isolated for use as the enzyme source. 10 mM stock solutions of compounds were prepared in 100% DMSO and further diluted in 100% DMSO required concentration to 1 mM stocks. The stock compound solutions and DMSO vehicle controls were diluted to target final compound concentrations using assay buffer to a final concentration of 50 mM HEPES containing 100 mM NaCl, pH adjusted to 7.5. The MAS peptide was formulated to a 7.5 mM stock in distilled water and prior to use further diluted 1:4. […] 40 μl of enzyme was mixed with 100 μl of MnCl2 then further diluted in assay buffer to a final concentration of 16 μg/ml. To test for compound effect on MetAP2 enzyme activity, 5 μl of test compound, 10 μl of MAS substrate/amino acid oxidase mixture, 10 μl of MetAP2 was added to test wells in a 384 well black plate with blank wells containing no enzyme, replaced with 10 μl of assay buffer. All compounds were tested in duplicate on two occasions on the same day.
The plate was sealed with a TopSeal A cover and mixed briefly on an orbital mixer at 900 rpm. The plate was incubated for a further 25 minutes at 25° C. A 5× stock of Amplex buffer was prepared (0.25 M sodium phosphate, pH 7.4) and stored at 4° C. […] Horse radish peroxidase was diluted in […] of Amplex buffer, 100 μl of this was combined with 50 μl of Amplex Ultrared in […] of 1× Amplex buffer to generate sufficient detection reagent for a 384 well plate. 25 μl detection reagent was added to each well of the test plate, which was re-sealed and mixed briefly on an orbital shaker. The plate was transferred to an Envision Multi-label reader and RFU measured corresponding to excitation 531 nm and emission 595 nm. At the end of the MetAP2 incubation 25 μl Amplex/HRP mixture per well was added and the plate read plate on a plate reader.

Experiment [2] relates to Diet Induced Obese (DIO) C57BL/6 mice. Kind of experiment: 10 day DIO mouse model, weight loss vs. vehicle. The following applies: 240 h; for inhibition in vivo at 0.3 mg/kg: 0.3 mpk sc once a day for 10 days; for inhibition in vivo at 1 mg/kg: 1.0 mpk sc once a day for 10 days. The experiment is classed as in vivo. From the text: The objective of this study design was to investigate the efficacy of disclosed compounds in a 10 day DIO mouse model. Effects on body weight, food intake, hematology and blood chemistry were the primary readouts of this study design. Male, Diet Induced Obese (DIO) C57BL/6 mice, 19-21 weeks of age (13-15 weeks on high fat diet) were ordered from a certified vendor and upon receipt were housed on irradiated corncob bedding in micro-isolator cages on a 12-hour light-dark cycle (0700-1900) at 68-74° F. and 30-70% humidity. Mice were fed Research Diets D12492 (60% Kcal fat, 20% Kcal carbohydrate and 20% protein) and provided water ad libitum. DIO mice were received and housed in the facility for approximately two weeks prior to the start of test article administration. On Day −4 or −3, mice were randomized into study groups based on body weight and body weights were continued to be recorded daily for the duration of the study. Daily food intake was assessed starting on Study Day −2 by weighing of the food with hopper together to avoid loss of food in transfer.
Compounds were formulated into a 100% DMSO stock (at 9 mg/mL) prior to the start, and further diluted into the target working concentration using the vehicle of 10% DMSO in water. Prior to test article administration, starting on Day −3 a dosing acclimation occurred with all animals receiving a subcutaneous injection of vehicle (10% DMSO) only for 3 days. Starting on Day 1, test compounds or vehicle were administered based on individual body weight, subcutaneously, once a day for 10 days. All mice were sacrificed on Day 11, 24 hours following the final dosing on Day 10. After sacrifice, whole blood was collected and analyzed for hematology and blood chemistry parameters.
Compounds were tested for weight loss vs. vehicle at 0.3 and 1.0 mpk sc (mg per kg animal weight delivered subcutaneously), and the results are shown in Table 2 below.

T1 sequence (P50579 whole entry): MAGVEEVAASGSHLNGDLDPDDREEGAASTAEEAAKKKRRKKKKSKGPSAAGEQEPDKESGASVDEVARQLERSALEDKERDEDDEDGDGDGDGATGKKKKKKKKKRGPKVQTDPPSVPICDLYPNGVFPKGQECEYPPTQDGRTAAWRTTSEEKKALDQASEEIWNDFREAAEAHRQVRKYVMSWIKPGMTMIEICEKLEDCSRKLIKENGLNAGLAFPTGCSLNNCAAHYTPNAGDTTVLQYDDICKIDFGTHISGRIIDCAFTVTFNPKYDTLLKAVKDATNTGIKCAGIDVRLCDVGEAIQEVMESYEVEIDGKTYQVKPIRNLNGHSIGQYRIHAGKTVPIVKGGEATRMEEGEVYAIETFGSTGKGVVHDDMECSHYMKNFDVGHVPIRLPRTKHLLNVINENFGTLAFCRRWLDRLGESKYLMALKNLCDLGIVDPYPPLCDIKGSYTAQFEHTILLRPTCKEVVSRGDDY

Regarding `CO[C@@H]1[C@H](OC(=O)N[C@H](Cc2nnc[nH]2)C(C)C)CC[C@]2(CO2)[C@H]1[C@@]1(C)O[C@@H]1CC=C(C)C` [Example 31, (3R,4S,5S,6R)-5-methoxy-4-((2R,3R)-2-methyl-3-(3-methylbut-2-enyl)oxiran-2-yl)-1-oxaspiro[2.5]octan-6-yl (R)-3-methyl-1-(4H-1,2,4-triazol-3-yl)butan-2-ylcarbamate], in experiment [1], the IC50 is under 50 nM. In addition, in experiment [2], the inhibition in vivo at 0.3 mg/kg stood at 2.4% and the inhibition in vivo at 1 mg/kg was found to be 2.5%.

In the case of `CO[C@@H]1[C@H](OC(=O)N[C@H](c2nnc[nH]2)C(C)C)CC[C@]2(CO2)[C@H]1[C@@]1(C)O[C@@H]1CC=C(C)C` [Example 9, (3R,4S,5S,6R)-5-methoxy-4-((2R,3R)-2-methyl-3-(3-methylbut-2-enyl)oxiran-2-yl)-1-oxaspiro[2.5]octan-6-yl (S)-2-methyl-1-(4H-1,2,4-triazol-3-yl)propylcarbamate], in experiment [1], the half-inhibitory concentration (IC50) was under 50 nM. Besides, the inhibition in vivo at 0.3 mg/kg in experiment [2] is 2.1%.

For `CO[C@@H]1[C@H](OC(=O)N[C@H](c2noc(=O)[nH]2)C(C)C)CC[C@]2(CO2)[C@H]1[C@@]1(C)O[C@@H]1CC=C(C)C` [Example 10, (3R,4S,5S,6R)-5-methoxy-4-((2R,3R)-2-methyl-3-(3-methylbut-2-enyl)oxiran-2-yl)-1-oxaspiro[2.5]octan-6-yl (S)-2-methyl-1-(5-oxo-4,5-dihydro-1,2,4-oxadiazol-3-yl)propylcarbamate], in experiment [1], the IC50 lay within 50 to 500 nM. For the same molecule, in experiment [2], the inhibition in vivo at 0.3 mg/kg was determined as 4.1% and the inhibition in vivo at 1 mg/kg worked out at 2.9%.

`CO[C@@H]1[C@H](OC(=O)N[C@H](c2cn(C[C@H]3CCN(CC(F)F)C3)cn2)C(C)C)CC[C@]2(CO2)[C@H]1[C@@]1(C)O[C@@H]1CC=C(C)C` [Example 18, (3R,4S,5S,6R)-5-methoxy-4-((2R,3R)-2-methyl-3-(3-methylbut-2-enyl)oxiran-2-yl)-1-oxaspiro[2.5]octan-6-yl (S)-1-(1-(((S)-1-(2,2-difluoroethyl)pyrrolidin-3-yl)methyl)-1H-imidazol-4-yl)-2-methylpropylcarbamate]: in experiment [1], the half-inhibitory concentration (IC50) is 50 to 500 nM. The inhibition in vivo at 0.3 mg/kg in experiment [2] is -0.4%.

Consider `CNc1nnc(C[C@@H](NC(=O)O[C@@H]2CC[C@]3(CO3)[C@@H]([C@@]3(C)O[C@@H]3CC=C(C)C)[C@@H]2OC)C(C)C)o1` [Example 33, (3R,4S,5S,6R)-5-methoxy-4-((2R,3R)-2-methyl-3-(3-methylbut-2-enyl)oxiran-2-yl)-1-oxaspiro[2.5]octan-6-yl (R)-3-methyl-1-(5-(methylamino)-1,3,4-oxadiazol-2-yl)butan-2-ylcarbamate], for which, in experiment [1], the IC50 lay within 50 to 500 nM. Further, in experiment [2], the inhibition in vivo at 0.3 mg/kg was determined as 3.7% and the inhibition in vivo at 1 mg/kg is 1%.

In the case of `CO[C@@H]1[C@H](OC(=O)N(C)[C@H](c2cn(CC(C)C)cn2)C(C)C)CC[C@]2(CO2)[C@H]1[C@@]1(C)O[C@@H]1CC=C(C)C` [Example 40, (3R,4S,5S,6R)-5-methoxy-4-((2R,3R)-2-methyl-3-(3-methylbut-2-enyl)oxiran-2-yl)-1-oxaspiro[2.5]octan-6-yl ((S)-1-(1-isobutyl-1H-imidazol-4-yl)-2-methylpropyl)(methyl)carbamate], the IC50 in experiment [1] was in the range of 50 to 500 nM. Further, the inhibition in vivo at 0.3 mg/kg in experiment [2] stood at 2.3%.

Regarding `CO[C@@H]1[C@H](OC(=O)NCC(C)(C)c2nnc[nH]2)CC[C@]2(CO2)[C@H]1[C@@]1(C)O[C@@H]1CC=C(C)C` [Example 39, (3R,4S,5S,6R)-5-methoxy-4-((2R,3R)-2-methyl-3-(3-methylbut-2-enyl)oxiran-2-yl)-1-oxaspiro[2.5]octan-6-yl 2-methyl-2-(4H-1,2,4-triazol-3-yl)propylcarbamate], the IC50 in experiment [1] lay within 50 to 500 nM. For the same molecule, in experiment [2], the inhibition in vivo at 0.3 mg/kg worked out at 3.4% and the inhibition in vivo at 1 mg/kg was found to be 7.6%.

Turning to `CNc1nnc(C[C@H](NC(=O)O[C@@H]2CC[C@]3(CO3)[C@@H]([C@@]3(C)O[C@@H]3CC=C(C)C)[C@@H]2OC)C(C)C)s1` [Example 34, (3R,4S,5S,6R)-5-methoxy-4-((2R,3R)-2-methyl-3-(3-methylbut-2-enyl)oxiran-2-yl)-1-oxaspiro[2.5]octan-6-yl (S)-3-methyl-1-(5-(methylamino)-1,3,4-thiadiazol-2-yl)butan-2-ylcarbamate], the IC50 in experiment [1] lay in the range of 50 to 500 nM. Besides, the inhibition in vivo at 0.3 mg/kg in experiment [2] turned out to be 3.4%.

`CNc1nnc(C[C@@H](NC(=O)O[C@@H]2CC[C@]3(CO3)[C@@H]([C@@]3(C)O[C@@H]3CC=C(C)C)[C@@H]2OC)C(C)C)s1` [Example 35, (3R,4S,5S,6R)-5-methoxy-4-((2R,3R)-2-methyl-3-(3-methylbut-2-enyl)oxiran-2-yl)-1-oxaspiro[2.5]octan-6-yl (R)-3-methyl-1-(5-(methylamino)-1,3,4-thiadiazol-2-yl)butan-2-ylcarbamate]: the half-maximal inhibitory concentration (IC50) in experiment [1] is 50 to 500 nM. Besides, the inhibition in vivo at 1 mg/kg in experiment [2] was 1%.

`CO[C@@H]1[C@H](OC(=O)N[C@H](c2nnc(N)o2)C(C)C)CC[C@]2(CO2)[C@H]1[C@@]1(C)O[C@@H]1CC=C(C)C` [Example 1, (3R,4S,5S,6R)-5-methoxy-4-((2R,3R)-2-methyl-3-(3-methylbut-2-enyl)oxiran-2-yl)-1-oxaspiro[2.5]octan-6-yl (S)-1-(5-amino-1,3,4-oxadiazol-2-yl)-2-methylpropylcarbamate]: the IC50 in experiment [1] is under 50 nM. In experiment [2], the inhibition in vivo at 0.3 mg/kg was determined as 2.6% and the inhibition in vivo at 1 mg/kg was found to be 2.1%.

On to `CO[C@@H]1[C@H](OC(=O)N[C@H](c2ccc(N3CCC3)nc2)C(C)C)CC[C@]2(CO2)[C@H]1[C@@]1(C)O[C@@H]1CC=C(C)C` [Example 41, (3R,4S,5S,6R)-5-methoxy-4-((2R,3R)-2-methyl-3-(3-methylbut-2-enyl)oxiran-2-yl)-1-oxaspiro[2.5]octan-6-yl ((S)-1-(6-(azetidin-1-yl)pyridin-3-yl)-2-methylpropyl)carbamate], for which the IC50 in experiment [1] was under 50 nM. Further, in experiment [2], the inhibition in vivo at 0.3 mg/kg was found to be 11.7%.

Take `CNc1nnc([C@H](NC(=O)O[C@@H]2CC[C@]3(CO3)[C@@H]([C@@]3(C)O[C@@H]3CC=C(C)C)[C@@H]2OC)C(C)C)s1` [Example 7, (3R,4S,5S,6R)-5-methoxy-4-((2R,3R)-2-methyl-3-(3-methylbut-2-enyl)oxiran-2-yl)-1-oxaspiro[2.5]octan-6-yl (R)-2-methyl-1-(5-(methylamino)-1,3,4-thiadiazol-2-yl)propylcarbamate]: the IC50 in experiment [1] was under 50 nM. Moreover, the inhibition in vivo at 0.3 mg/kg in experiment [2] was determined as 1.8%.

Take `CO[C@@H]1[C@H](OC(=O)/C=C/c2ccc(OCCN(C)C)cc2)CC[C@]2(CO2)[C@H]1[C@@]1(C)O[C@@H]1CC=C(C)C` [A, [(3R,6R,7S,8S)-7-methoxy-8-[(2R,3R)-2-methyl-3-(3-methylbut-2-enyl)oxiran-2-yl]-2-oxaspiro[2.5]octan-6-yl] (E)-3-[4-[2-(dimethylamino)ethoxy]phenyl]prop-2-enoate, reference compound]: in experiment [2], the inhibition in vivo at 0.3 mg/kg was found to be 20% and the inhibition in vivo at 1 mg/kg worked out at 18%.

With `CO[C@@H]1[C@H](OC(=O)N[C@H](c2c[nH]nn2)C(C)C)CC[C@]2(CO2)[C@H]1[C@@]1(C)O[C@@H]1CC=C(C)C` [Example 21, (3R,4S,5S,6R)-5-methoxy-4-((2R,3R)-2-methyl-3-(3-methylbut-2-enyl)oxiran-2-yl)-1-oxaspiro[2.5]octan-6-yl (S)-2-methyl-1-(1H-1,2,3-triazol-4-yl)propylcarbamate], the half-maximal inhibitory concentration (IC50) in experiment [1] was under 50 nM.
